Columns and labels:
Test in all cases: KINOMEscan competition binding
Conditions in all cases: compound 10.0 µM
[1] = biological target: CDK4 CCND3 (human) (UniProt P11802+P30281)
[2] = system: EGFR (human), P00533 [746-750 del]
[3] = biological target: MTOR (human) (UniProt P42345)
[4] = system: EGFR (human), P00533 [L861Q]
[5] = biological target: DDR1 (human) (UniProt Q08345)
[6] = biological target: KIT (human) (UniProt P10721)
[7] = biological target: STK39 (human) (UniProt Q9UEW8)
[8] = biological target: MAP2K5 (human) (UniProt Q13163)
[9] = biological target: PI4KB (human) (UniProt Q9UBF8)
[10] = biological target: MYLK3 (human) (UniProt Q32MK0)
[11] = biological target: NIM1 (human) (UniProt Q8IY84)
[12] = biological target: HIPK3 (human) (UniProt Q9H422)
[13] = biological target: DSTYK (human) (UniProt Q6XUX3)
[14] = biological target: OXSR1 (human) (UniProt O95747)
[15] = system: PIK3CA (human), P42336 [H1047Y]
[16] = system: PIK3CA (human), P42336 [Q546K]
[17] = biological target: BTK (human) (UniProt Q06187)
[18] = biological target: DYRK1A (human) (UniProt Q13627)
[19] = biological target: MAST1 (human) (UniProt Q9Y2H9)
[20] = biological target: MAP3K6 (human) (UniProt O95382)
[21] = biological target: PRPF4B (human) (UniProt Q13523)
[22] = biological target: MAP3K2 (human) (UniProt Q9Y2U5)
[23] = biological target: PIP5K1C (human) (UniProt O60331)
[24] = biological target: NEK11 (human) (UniProt Q8NG66)
[25] = biological target: STK38 (human) (UniProt Q15208)
[26] = biological target: MAP3K1 (human) (UniProt Q13233)
[27] = biological target: PRKCI (human) (UniProt P41743)
[28] = biological target: SIK3 (human) (UniProt Q9Y2K2)
[29] = biological target: GRK7 (human) (UniProt Q8WTQ7)
[30] = biological target: SGK3 (human) (UniProt Q96BR1)
[31] = biological target: SBK1 (human) (UniProt Q52WX2)
[32] = biological target: CRK2 (P.falciparum) (UniProt P61075)
[33] = system: PIK3CA (human), P42336 [E545A]
[34] = biological target: EGFR (human) (UniProt P00533)
[35] = biological target: CASK (human) (UniProt O14936)
[36] = biological target: TAOK2 (human) (UniProt Q9UL54)
[37] = system: PIK3CA (human), P42336 [I800L]
[38] = system: FLT3 (human), P36888 [K663Q]
[39] = biological target: PIK3CA (human) (UniProt P42336)
Sequence of PIK3CA (human) (P42336 whole entry, looked up): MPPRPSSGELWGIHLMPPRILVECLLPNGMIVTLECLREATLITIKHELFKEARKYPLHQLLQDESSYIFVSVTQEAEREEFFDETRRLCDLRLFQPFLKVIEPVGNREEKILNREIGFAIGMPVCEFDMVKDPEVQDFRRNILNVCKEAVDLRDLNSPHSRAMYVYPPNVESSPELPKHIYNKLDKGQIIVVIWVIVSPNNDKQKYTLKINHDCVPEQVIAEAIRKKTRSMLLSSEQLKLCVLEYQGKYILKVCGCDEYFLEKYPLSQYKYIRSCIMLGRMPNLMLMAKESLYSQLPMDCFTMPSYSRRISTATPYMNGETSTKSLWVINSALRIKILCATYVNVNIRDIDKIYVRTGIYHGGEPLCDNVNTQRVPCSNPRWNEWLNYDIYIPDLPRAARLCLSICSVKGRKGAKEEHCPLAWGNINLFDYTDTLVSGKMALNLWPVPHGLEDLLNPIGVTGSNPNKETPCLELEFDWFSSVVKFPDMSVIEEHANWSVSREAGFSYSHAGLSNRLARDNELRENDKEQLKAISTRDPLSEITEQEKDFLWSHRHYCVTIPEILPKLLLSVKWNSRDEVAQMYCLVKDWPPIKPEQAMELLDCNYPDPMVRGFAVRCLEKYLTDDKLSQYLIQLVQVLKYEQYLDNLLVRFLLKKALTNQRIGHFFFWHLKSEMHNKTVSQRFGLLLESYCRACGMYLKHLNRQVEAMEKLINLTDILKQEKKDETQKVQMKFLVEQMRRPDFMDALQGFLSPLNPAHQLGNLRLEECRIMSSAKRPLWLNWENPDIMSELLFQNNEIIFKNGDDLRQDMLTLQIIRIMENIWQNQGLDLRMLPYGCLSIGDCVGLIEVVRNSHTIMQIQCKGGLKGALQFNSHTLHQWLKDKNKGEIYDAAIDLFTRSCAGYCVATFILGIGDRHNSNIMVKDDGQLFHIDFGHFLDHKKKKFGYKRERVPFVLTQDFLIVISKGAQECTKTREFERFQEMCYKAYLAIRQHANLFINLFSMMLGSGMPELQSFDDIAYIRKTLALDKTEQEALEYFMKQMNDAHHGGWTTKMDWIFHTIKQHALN

Sequence of NEK11 (human) (Q8NG66 whole entry, looked up): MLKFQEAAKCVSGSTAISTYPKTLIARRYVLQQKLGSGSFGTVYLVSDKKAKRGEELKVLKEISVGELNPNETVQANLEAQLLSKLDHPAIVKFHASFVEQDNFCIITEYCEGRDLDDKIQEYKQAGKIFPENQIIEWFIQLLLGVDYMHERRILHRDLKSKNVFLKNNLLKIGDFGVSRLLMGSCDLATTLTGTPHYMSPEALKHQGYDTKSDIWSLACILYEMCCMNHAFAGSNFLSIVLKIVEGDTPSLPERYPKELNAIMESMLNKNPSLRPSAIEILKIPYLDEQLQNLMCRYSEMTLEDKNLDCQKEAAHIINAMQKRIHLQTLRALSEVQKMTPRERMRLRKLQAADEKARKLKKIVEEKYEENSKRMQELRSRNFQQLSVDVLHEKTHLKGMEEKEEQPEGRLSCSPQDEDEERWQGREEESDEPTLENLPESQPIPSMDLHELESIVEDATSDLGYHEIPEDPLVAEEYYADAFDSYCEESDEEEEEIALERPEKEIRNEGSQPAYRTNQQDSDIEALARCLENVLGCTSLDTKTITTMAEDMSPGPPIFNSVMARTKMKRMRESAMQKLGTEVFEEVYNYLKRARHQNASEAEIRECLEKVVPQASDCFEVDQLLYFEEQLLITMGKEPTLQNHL
Sequence of PI4KB (human) (Q9UBF8 whole entry, looked up): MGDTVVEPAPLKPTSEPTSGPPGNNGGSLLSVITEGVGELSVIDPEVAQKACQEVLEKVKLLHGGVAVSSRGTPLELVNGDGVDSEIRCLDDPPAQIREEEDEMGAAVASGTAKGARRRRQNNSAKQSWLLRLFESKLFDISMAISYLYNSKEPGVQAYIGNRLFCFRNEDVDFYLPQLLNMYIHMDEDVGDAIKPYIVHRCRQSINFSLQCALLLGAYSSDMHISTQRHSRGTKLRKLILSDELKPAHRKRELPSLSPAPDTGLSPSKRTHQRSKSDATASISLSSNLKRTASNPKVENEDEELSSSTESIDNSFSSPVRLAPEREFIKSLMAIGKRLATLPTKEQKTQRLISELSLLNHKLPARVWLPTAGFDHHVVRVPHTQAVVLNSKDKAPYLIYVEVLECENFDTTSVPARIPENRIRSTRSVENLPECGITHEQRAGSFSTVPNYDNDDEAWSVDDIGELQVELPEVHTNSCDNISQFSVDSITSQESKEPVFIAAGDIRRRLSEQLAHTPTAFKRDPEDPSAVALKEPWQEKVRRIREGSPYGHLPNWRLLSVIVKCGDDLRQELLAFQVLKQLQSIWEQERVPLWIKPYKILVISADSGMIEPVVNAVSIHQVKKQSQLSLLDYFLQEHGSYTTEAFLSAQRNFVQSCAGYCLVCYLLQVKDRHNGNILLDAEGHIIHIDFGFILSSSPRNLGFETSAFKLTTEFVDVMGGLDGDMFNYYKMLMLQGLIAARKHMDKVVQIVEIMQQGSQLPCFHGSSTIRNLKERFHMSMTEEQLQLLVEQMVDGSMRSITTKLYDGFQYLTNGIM
Sequence of SBK1 (human) (Q52WX2 whole entry, looked up): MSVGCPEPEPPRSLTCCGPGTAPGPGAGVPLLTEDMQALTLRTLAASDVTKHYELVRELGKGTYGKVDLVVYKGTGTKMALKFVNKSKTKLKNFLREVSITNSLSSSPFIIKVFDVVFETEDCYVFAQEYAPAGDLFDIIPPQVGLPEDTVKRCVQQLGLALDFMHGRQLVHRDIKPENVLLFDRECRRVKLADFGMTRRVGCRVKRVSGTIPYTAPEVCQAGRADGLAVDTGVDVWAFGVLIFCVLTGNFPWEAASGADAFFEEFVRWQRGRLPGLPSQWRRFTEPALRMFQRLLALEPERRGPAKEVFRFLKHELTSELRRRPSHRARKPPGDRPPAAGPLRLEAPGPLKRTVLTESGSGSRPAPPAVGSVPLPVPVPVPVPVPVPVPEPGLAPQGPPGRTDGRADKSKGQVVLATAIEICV
Sequence of DDR1 (human) (Q08345 whole entry, looked up): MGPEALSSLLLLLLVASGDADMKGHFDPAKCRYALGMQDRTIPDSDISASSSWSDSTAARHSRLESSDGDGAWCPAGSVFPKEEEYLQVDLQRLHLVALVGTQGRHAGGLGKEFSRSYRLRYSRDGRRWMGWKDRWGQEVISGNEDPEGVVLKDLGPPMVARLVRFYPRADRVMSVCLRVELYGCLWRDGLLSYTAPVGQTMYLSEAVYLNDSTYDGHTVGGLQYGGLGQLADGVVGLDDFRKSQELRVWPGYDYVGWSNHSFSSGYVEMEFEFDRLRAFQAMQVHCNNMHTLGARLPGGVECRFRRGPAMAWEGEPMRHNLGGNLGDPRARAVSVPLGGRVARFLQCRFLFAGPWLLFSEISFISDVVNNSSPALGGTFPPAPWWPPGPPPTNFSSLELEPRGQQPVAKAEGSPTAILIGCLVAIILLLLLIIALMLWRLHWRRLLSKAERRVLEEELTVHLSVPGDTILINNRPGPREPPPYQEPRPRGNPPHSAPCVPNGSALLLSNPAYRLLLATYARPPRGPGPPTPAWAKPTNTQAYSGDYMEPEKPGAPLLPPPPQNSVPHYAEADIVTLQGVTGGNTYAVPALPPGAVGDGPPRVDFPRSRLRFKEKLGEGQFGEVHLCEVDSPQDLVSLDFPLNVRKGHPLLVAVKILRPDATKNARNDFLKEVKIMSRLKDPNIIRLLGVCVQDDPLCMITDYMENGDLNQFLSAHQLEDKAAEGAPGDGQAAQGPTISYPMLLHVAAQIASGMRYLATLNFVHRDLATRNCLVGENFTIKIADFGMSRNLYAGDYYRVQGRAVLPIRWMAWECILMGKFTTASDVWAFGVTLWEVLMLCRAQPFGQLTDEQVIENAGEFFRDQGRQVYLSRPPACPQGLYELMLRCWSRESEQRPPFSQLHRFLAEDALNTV
Sequence of MYLK3 (human) (Q32MK0 whole entry, looked up): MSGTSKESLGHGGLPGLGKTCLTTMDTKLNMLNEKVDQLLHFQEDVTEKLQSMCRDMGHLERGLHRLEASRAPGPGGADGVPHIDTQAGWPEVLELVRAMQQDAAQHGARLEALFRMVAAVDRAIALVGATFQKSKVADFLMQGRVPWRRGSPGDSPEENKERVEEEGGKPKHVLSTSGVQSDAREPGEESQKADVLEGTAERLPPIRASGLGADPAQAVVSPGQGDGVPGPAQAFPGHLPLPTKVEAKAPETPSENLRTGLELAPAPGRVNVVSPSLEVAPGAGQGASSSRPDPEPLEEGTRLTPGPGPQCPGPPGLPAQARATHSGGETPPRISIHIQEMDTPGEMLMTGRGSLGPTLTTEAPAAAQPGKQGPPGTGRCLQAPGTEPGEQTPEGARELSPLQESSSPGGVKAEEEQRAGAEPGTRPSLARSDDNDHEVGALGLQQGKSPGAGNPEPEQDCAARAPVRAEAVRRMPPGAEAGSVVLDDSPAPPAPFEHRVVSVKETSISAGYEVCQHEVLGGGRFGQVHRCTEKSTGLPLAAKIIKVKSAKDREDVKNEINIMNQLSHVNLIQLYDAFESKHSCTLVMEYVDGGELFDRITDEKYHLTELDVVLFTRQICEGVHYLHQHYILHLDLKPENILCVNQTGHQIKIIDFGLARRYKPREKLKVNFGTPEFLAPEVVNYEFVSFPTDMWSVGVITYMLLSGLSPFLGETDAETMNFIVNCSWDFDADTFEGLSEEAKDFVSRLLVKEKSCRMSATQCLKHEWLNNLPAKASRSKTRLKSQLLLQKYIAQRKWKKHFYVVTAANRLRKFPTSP
Sequence of PIK3CA (human), P42336 [Q546K] (P42336 whole entry Q546K, looked up): as the sequence (P42336 whole entry, looked up) above, with Q546K counted along it
Sequence of CRK2 (P.falciparum) (P61075 whole entry, looked up): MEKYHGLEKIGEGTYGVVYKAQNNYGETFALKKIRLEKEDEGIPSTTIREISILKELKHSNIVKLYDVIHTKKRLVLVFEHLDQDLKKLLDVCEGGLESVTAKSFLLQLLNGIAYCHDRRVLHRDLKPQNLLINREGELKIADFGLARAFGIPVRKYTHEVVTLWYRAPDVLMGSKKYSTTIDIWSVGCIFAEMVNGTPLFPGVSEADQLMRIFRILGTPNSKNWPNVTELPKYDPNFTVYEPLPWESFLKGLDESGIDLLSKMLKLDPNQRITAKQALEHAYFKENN
Sequence of PIK3CA (human), P42336 [I800L] (P42336 whole entry I800L, looked up): as the sequence (P42336 whole entry, looked up) above, with I800L counted along it

| SMILES | kinase still bound, per cent of control [1] | kinase still bound, per cent of control [2] | kinase still bound, per cent of control [3] | kinase still bound, per cent of control [4] | kinase still bound, per cent of control [5] | kinase still bound, per cent of control [6] | kinase still bound, per cent of control [7] | kinase still bound, per cent of control [8] | kinase still bound, per cent of control [9] | kinase still bound, per cent of control [10] | kinase still bound, per cent of control [11] | kinase still bound, per cent of control [12] | kinase still bound, per cent of control [13] | kinase still bound, per cent of control [14] | kinase still bound, per cent of control [15] | kinase still bound, per cent of control [16] | kinase still bound, per cent of control [17] | kinase still bound, per cent of control [18] | kinase still bound, per cent of control [19] | kinase still bound, per cent of control [20] | other results |
| --- | --- | --- | --- | --- | --- | --- | --- | --- | --- | --- | --- | --- | --- | --- | --- | --- | --- | --- | --- | --- | --- |
| O=C(NC1CC1)c1cccc(-c2ccc3c(NC(=O)C4CC4)n[nH]c3c2)c1 | 82% | 90% | 100% | 69% | 71% | 37% | 99% | 5% | 84% | 46% | 100% | 62% | 71% | 98% | 89% | 98% | 100% | 98% | 94% | 86% | kinase still bound, per cent of control [21]: 53%; kinase still bound, per cent of control [22]: 63%; kinase still bound, per cent of control [23]: 12%; kinase still bound, per cent of control [24]: 95%; kinase still bound, per cent of control [25]: 85%; kinase still bound, per cent of control [26]: 100%; kinase still bound, per cent of control [27]: 74%; kinase still bound, per cent of control [28]: 100%; kinase still bound, per cent of control [29]: 84%; kinase still bound, per cent of control [30]: 42%; kinase still bound, per cent of control [31]: 100%; kinase still bound, per cent of control [32]: 100%; kinase still bound, per cent of control [33]: 93%; kinase still bound, per cent of control [34]: 96%; kinase still bound, per cent of control [35]: 82%; kinase still bound, per cent of control [36]: 20%; kinase still bound, per cent of control [37]: 100%; kinase still bound, per cent of control [38]: 61%; kinase still bound, per cent of control [39]: 99% |
| CN(C)C/C=C/C(=O)Nc1cccc(Nc2ncc3c(n2)N(C)c2ccccc2C(=O)N3C)c1 | 85% | 90% | 74% | 73% | 5.4% | 66% | 100% | 45% | 87% | 100% | 21% | 85% | 18% | 25% | 51% | 30% | 42% | 73% | 100% | 94% | kinase still bound, per cent of control [21]: 100%; kinase still bound, per cent of control [22]: 0.1%; kinase still bound, per cent of control [23]: 11%; kinase still bound, per cent of control [24]: 77%; kinase still bound, per cent of control [25]: 74%; kinase still bound, per cent of control [26]: 72%; kinase still bound, per cent of control [27]: 97%; kinase still bound, per cent of control [28]: 20%; kinase still bound, per cent of control [29]: 100%; kinase still bound, per cent of control [30]: 90%; kinase still bound, per cent of control [31]: 7.6%; kinase still bound, per cent of control [32]: 100%; kinase still bound, per cent of control [33]: 67%; kinase still bound, per cent of control [34]: 69%; kinase still bound, per cent of control [35]: 39%; kinase still bound, per cent of control [36]: 0%; kinase still bound, per cent of control [37]: 55%; kinase still bound, per cent of control [38]: 37%; kinase still bound, per cent of control [39]: 54% |

From the kinase profiling compilation of Christmann-Franck et al. (2016)
